Measurements published in patent US10995101B2, “2-oxo-thiazole derivatives as A2A inhibitors and compounds for use in the treatment of cancers” (iTeos Therapeutics SA, priority 2017, dated 2021).

Molecular target: A2A receptor (Homo sapiens, UniProt P29274)
Test: Inhibition of cAMP production in HEK cells
Format: cell-based
Conditions: HEK-293 cells with A2A receptor
Method: When the A2A receptor is activated, is induces the production of cAMP.
HEK-293 cells with a stable transfection of A2A receptor were bought from PerkinElmer® (# ES-011-C). […] Fresh media without the selection marker was added on the day immediately before the experiment to stop selection pressure.
Stimulation buffer b) mimics the human situation by increasing the amount of albumin present in the assay.
Compounds of the present invention were diluted 100× in either of the buffers depending on the assay performed. […] The total volume of the reaction was 20 μl (10 μl of cells, 5 μl of antagonist and 5 μl of agonist). The reaction was finalized by adding 10 μl of 4× EU-cAMP tracer working solution and 10 μl of 4× ULight-anti-cAMP working solution. The TR-FRET signal was measured after 1 hour using a Spectramax Paradigm (Molecular Devices).

[1] = IC50 (nM) (3 nM NECA as agonist, 0.1% BSA), 3 nM NECA as agonist, 0.1% BSA
[2] = IC50 (nM) (5 nM NECA as agonist, 2% HSA), 5 nM NECA as agonist, 2% HSA
[3] = IC50 (nM) (5 μM Adenosine as agonist, 2.0% HSA), 5 μM Adenosine as agonist, 2.0% HSA

Chain of A2A receptor (P29274 whole entry): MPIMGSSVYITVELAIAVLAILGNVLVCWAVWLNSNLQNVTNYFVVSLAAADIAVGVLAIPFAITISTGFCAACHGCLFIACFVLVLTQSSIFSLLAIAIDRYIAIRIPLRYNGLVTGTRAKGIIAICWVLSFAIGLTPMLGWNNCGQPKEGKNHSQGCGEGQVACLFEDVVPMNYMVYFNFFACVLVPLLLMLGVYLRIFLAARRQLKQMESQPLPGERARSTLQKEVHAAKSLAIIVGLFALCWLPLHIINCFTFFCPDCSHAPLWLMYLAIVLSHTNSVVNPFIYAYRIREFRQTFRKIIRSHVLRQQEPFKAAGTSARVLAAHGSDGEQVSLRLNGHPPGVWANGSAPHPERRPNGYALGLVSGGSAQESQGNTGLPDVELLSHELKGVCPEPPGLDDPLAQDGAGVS

| SMILES | IC50 [1] [nM] | IC50 [2] [nM] | IC50 [3] [nM] |
| --- | --- | --- | --- |
| C[C@@H](Oc1ccc(N2CCN(CCn3c(=O)sc4c3nc(N)n3nc(-c5ccco5)nc43)CC2)c(F)c1)C(=O)O (single isomer, unassigned) [Compound 53] |  | 4 | 127 |
| Nc1nc2c(sc(=O)n2CCN2CCN(c3ccc(OCC(O)CO)cc3)CC2)c2nc(-c3ccco3)nn12 (stereo not drawn) [Compound 12, 5-amino-3-(2-(4-(4-(2,3-dihydroxypropoxy)phenyl)piperazin-1-yl)ethyl)-8-(furan-2-yl)thiazolo[5,4-e][1,2,4]triazolo[1,5-c]pyrimidin-2(3H)-one] | 14.2 |  |  |
| CS(=O)(=O)c1ccc(N2CCN(CCn3c(=O)sc4c3nc(N)n3nc(-c5ccco5)nc43)CC2)cc1 [Compound 20, 5-amino-8-(furan-2-yl)-3-(2-(4-(4-(methylsulfonyl)phenyl)piperazin-1-yl)ethyl)thiazolo[5,4-e][1,2,4]triazolo[1,5-c]pyrimidin-2(3H)-one] | 1.9 | 352 |  |
| NC(=O)c1cccc(N2CCN(CCn3c(=O)sc4c3nc(N)n3nc(-c5ccco5)nc43)CC2)c1 [Compound 22, 3-(4-(2-(5-amino-8-(furan-2-yl)-2-oxothiazolo[5,4-e][1,2,4]triazolo[1,5-c]pyrimidin-3(2H)-yl)ethyl)piperazin-1-yl)benzamide] | 1.4 | 6 | 352 |
| Nc1nc2c(sc(=O)n2CCN2CCN(c3cccc(OCCO)c3)CC2)c2nc(-c3ccco3)nn12 [Compound 23, 5-amino-8-(furan-2-yl)-3-(2-(4-(3-(2-hydroxyethoxy)phenyl)piperazin-1-yl)ethyl)thiazolo[5,4-e][1,2,4]triazolo[1,5-c]pyrimidin-2(3H)-one] | 0.6 |  |  |
| Nc1nc2c(sc(=O)n2CCN2CCN(c3ccc(S(=O)(=O)N4CCNCC4)cc3F)CC2)c2nc(-c3ccco3)nn12 [Compound 28, 5-amino-3-(2-(4-(2-fluoro-4-(piperazin-1-ylsulfonyl)phenyl)piperazin-1-yl)ethyl)-8-(furan-2-yl)thiazolo[5,4-e][1,2,4]triazolo[1,5-c]pyrimidin-2(3H)-one] | 0.2 | 4 | 115 |
| Nc1nc2c(sc(=O)n2CCN2CCN(c3c(F)cc(OCC(=O)O)cc3F)CC2)c2nc(-c3ccco3)nn12 [Compound 36, 2-(4-(4-(2-(5-amino-8-(furan-2-yl)-2-oxothiazolo[5,4-e][1,2,4]triazolo[1,5-c]pyrimidin-3(2H)-yl)ethyl)piperazin-1-yl)-3,5-difluorophenoxy)acetic acid] | 0.7 | 8 | 260 |
| CC(Oc1ccc(N2CCN(CCn3c(=O)sc4c3nc(N)n3nc(-c5ccco5)nc43)CC2)c(F)c1)C(=O)O (stereo not drawn) [Compound 37, 2-(4-(4-(2-(5-amino-8-(furan-2-yl)-2-oxothiazolo[5,4-e][1,2,4]triazolo[1,5-c]pyrimidin-3(2H)-yl)ethyl)piperazin-1-yl)-3-fluorophenoxy)propanoic acid] | 0.8 | 9 | 398 |
| Nc1nc2c(sc(=O)n2CCN2CCN(c3ccc(OCCCC(=O)O)cc3F)CC2)c2nc(-c3ccco3)nn12 [Compound 41, 4-(4-(4-(2-(5-amino-8-(furan-2-yl)-2-oxothiazolo[5,4-e][1,2,4]triazolo[1,5-c]pyrimidin-3(2H)-yl)ethyl)piperazin-1-yl)-3-fluorophenoxy)butanoic acid] | 0.8 | 14 | 423 |
| Nc1nc2c(sc(=O)n2CCN2CCN(c3ccc(F)c(OCC(=O)O)c3F)CC2)c2nc(-c3ccco3)nn12 [Compound 42, 2-(3-(4-(2-(5-amino-8-(furan-2-yl)-2-oxothiazolo[5,4-e][1,2,4]triazolo[1,5-c]pyrimidin-3(2H)-yl)ethyl)piperazin-1-yl)-2,6-difluorophenoxy)acetic acid] | 0.4 | 19 | 332 |
| CNCCN(C)C(=O)COc1ccc(N2CCN(CCn3c(=O)sc4c3nc(N)n3nc(-c5ccco5)nc43)CC2)c(F)c1 [Compound 58, 2-(4-(4-(2-(5-amino-8-(furan-2-yl)-2-oxothiazolo[5,4-e][1,2,4]triazolo[1,5-c]pyrimidin-3(2H)-yl)ethyl)piperazin-1-yl)-3-fluorophenoxy)-N-methyl-N-(2-(methylamino)ethyl)acetamide] | 0.3 | 1 | 41 |

The remaining compounds from weak to strong by IC50 [1], led by results:

| IC50 [1] [nM] | IC50 [2] [nM] | IC50 [3] [nM] | SMILES |
| --- | --- | --- | --- |
| 3.2 | 14 |  | Nc1nc2c(sc(=O)n2CCN2CCN(c3ccc(OCCN4CCOCC4)cc3)CC2)c2nc(-c3ccco3)nn12 [Compound 16, 5-amino-8-(furan-2-yl)-3-(2-(4-(4-(2-morpholinoethoxy)phenyl)piperazin-1-yl)ethyl)thiazolo[5,4-e][1,2,4]triazolo[1,5-c]pyrimidin-2(3H)-one] |
| 2.6 |  |  | CNC(=O)c1ccc(N2CCN(CCn3c(=O)sc4c3nc(N)n3nc(-c5ccco5)nc43)CC2)cc1 [Compound 15, 4-(4-(2-(5-amino-8-(furan-2-yl)-2-oxothiazolo[5,4-e][1,2,4]triazolo[1,5-c]pyrimidin-3(2H)-yl)ethyl)piperazin-1-yl)-N-methylbenzamide] |
| 2.6 |  |  | CNS(=O)(=O)c1ccc(N2CCN(CCn3c(=O)sc4c3nc(N)n3nc(-c5ccco5)nc43)CC2)cc1 [Compound 19, 4-(4-(2-(5-amino-8-(furan-2-yl)-2-oxothiazolo[5,4-e][1,2,4]triazolo[1,5-c]pyrimidin-3(2H)-yl)ethyl)piperazin-1-yl)-N-methylbenzenesulfonamide] |
| 2 |  |  | NC(=O)COc1ccc(N2CCN(CCn3c(=O)sc4c3nc(N)n3nc(-c5ccco5)nc43)CC2)cc1 [Compound 11, 2-(4-(4-(2-(5-amino-8-(furan-2-yl)-2-oxothiazolo[5,4-e][1,2,4]triazolo[1,5-c]pyrimidin-3(2H)-yl)ethyl)piperazin-1-yl)phenoxy)acetamide] |
| 1.7 | 85 | 2170 | Nc1nc2c(sc(=O)n2CCN2CCN(c3ccc(S(N)(=O)=O)cc3)CC2)c2nc(-c3ccco3)nn12 [Compound 18, 4-(4-(2-(5-amino-8-(furan-2-yl)-2-oxothiazolo[5,4-e][1,2,4]triazolo[1,5-c]pyrimidin-3(2H)-yl)ethyl)piperazin-1-yl)benzenesulfonamide] |
| 1.6 | 52 | 1310 | C[S+]([O-])c1ccc(N2CCN(CCn3c(=O)sc4c3nc(N)n3nc(-c5ccco5)nc43)CC2)cc1 (stereo not drawn) [Compound 21, 5-amino-8-(furan-2-yl)-3-(2-(4-(4-(methylsulfinyl)phenyl)piperazin-1-yl)ethyl)thiazolo[5,4-e][1,2,4]triazolo[1,5-c]pyrimidin-2(3H)-one] |
| 1 |  |  | CN(C)CCOc1ccc(N2CCN(CCn3c(=O)sc4c3nc(N)n3nc(-c5ccco5)nc43)CC2)cc1 [Compound 17, 5-amino-3-(2-(4-(4-(2-(dimethylamino)ethoxy)phenyl)piperazin-1-yl)ethyl)-8-(furan-2-yl)thiazolo[5,4-e][1,2,4]triazolo[1,5-c]pyrimidin-2(3H)-one] |
| 0.9 | 15 | 810 | C[C@@H](Oc1cc(N2CCN(CCn3c(=O)sc4c3nc(N)n3nc(-c5ccco5)nc43)CC2)c(F)cc1F)C(=O)O (single isomer, unassigned) [Compound 61] |
| 0.9 | 21 | 1070 | CC(C)(Oc1cc(N2CCN(CCn3c(=O)sc4c3nc(N)n3nc(-c5ccco5)nc43)CC2)c(F)cc1F)C(=O)O [Compound 59, 2-(5-(4-(2-(5-amino-8-(furan-2-yl)-2-oxothiazolo[5,4-e][1,2,4]triazolo[1,5-c]pyrimidin-3(2H)-yl)ethyl)piperazin-1-yl)-2,4-difluorophenoxy)-2-methylpropanoic acid] |
| 0.8 | 4 | 240 | C[C@H](Oc1cc(N2CCN(CCn3c(=O)sc4c3nc(N)n3nc(-c5ccco5)nc43)CC2)c(F)cc1F)C(=O)O (single isomer, unassigned) [Compound 60] |
| 0.7 | 11 | 567 | NC(=O)c1ccc(N2CCN(CCn3c(=O)sc4c3nc(N)n3nc(-c5ccco5)nc43)CC2)cc1 [Compound 14, 4-(4-(2-(5-amino-8-(furan-2-yl)-2-oxothiazolo[5,4-e][1,2,4]triazolo[1,5-c]pyrimidin-3(2H)-yl)ethyl)piperazin-1-yl)benzamide] |
| 0.6 | 2 | 63 | NCCOc1ccc(N2CCN(CCn3c(=O)sc4c3nc(N)n3nc(-c5ccco5)nc43)CC2)cc1 [Compound 13, 5-amino-3-(2-(4-(4-(2-aminoethoxy)phenyl)piperazin-1-yl)ethyl)-8-(furan-2-yl)thiazolo[5,4-e][1,2,4]triazolo[1,5-c]pyrimidin-2(3H)-one] |
| 0.4 | 11 | 350 | CS(=O)(=O)c1ccc(N2CCN(CCn3c(=O)sc4c3nc(N)n3nc(-c5ccco5)nc43)CC2)c(F)c1 [Compound 29, 5-amino-3-(2-(4-(2-fluoro-4-(methylsulfonyl)phenyl)piperazin-1-yl)ethyl)-8-(furan-2-yl)thiazolo[5,4-e][1,2,4]triazolo[1,5-c]pyrimidin-2(3H)-one] |
| 0.3 | 9 | 552 | C[C@H](Oc1ccc(N2CCN(CCn3c(=O)sc4c3nc(N)n3nc(-c5ccco5)nc43)CC2)c(F)c1)C(=O)O (single isomer, unassigned) [Compound 38] |
